For one cell line, relative viability results are on record in the supplement of paper PMC10307832.

Holding throughout (assay): relative viability (nuclei count vs DMSO), 5 days (fraction); higher = more cells survive
Compound in the assay “Masitinib + Decitabine”: Cc1ccc(NC(=O)c2ccc(CN3CCN(C)CC3)cc2)cc1Nc1nc(-c2cccnc2)cs1 [Masitinib] + Nc1ncn([C@H]2C[C@H](O)[C@@H](CO)O2)c(=O)n1 [Decitabine] (partner 2 µM)
Summed up:
(§1)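 Nuclei were stained with Hoechst during a one-step fixation (final 0.05% Triton X-100, 1% formaldehyde, 1 ug/ml Hoechst) carried out 5 days after dosing, then counted on 4× images. The cells, lung cancer lines in 1536-well plates, had been dosed by pin tool the day after seeding with one drug alone or a fixed anchor-drug dose plus five library-drug doses (not always all listed) in √10 steps. Relative viability is the nuclei count in treated wells divided by that in vehicle wells, and each value is the median of duplicate plates.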

Compound in assay [1]: CC1=CC(=CC=C1)NC2=NC(=CS2)C3=CC=NC=C3 + CC(C)C[C@H](NC(=O)[C@H](Cc1ccccc1)NC(=O)c1cnccn1)B(O)O [Bortezomib] (partner 0.002 µM)
The gist of the method:
as §1

Compound in the assay “Masitinib + OSI-027”: Cc1ccc(NC(=O)c2ccc(CN3CCN(C)CC3)cc2)cc1Nc1nc(-c2cccnc2)cs1 [Masitinib] + COc1cccc2cc(-c3nc([C@H]4CC[C@H](C(=O)O)CC4)n4ncnc(N)c34)[nH]c12 [OSI-027] (partner 0.5 µM)
The gist of the method:
as §1

Compound in assay [2]: CC1=CC(=CC=C1)NC2=NC(=CS2)C3=CC=NC=C3 + O=C(CCCCCCC(=O)Nc1ccccc1)NO [Vorinostat] (partner 1 µM)
Summed up: as §1

Consider UMC-11, for which the relative viability came to 0.565 in the assay with Masitinib + Decitabine (first compound 0.01 µM); 0.641 with Masitinib + Decitabine (first compound 0.03162 µM); 0.692 with Masitinib + Decitabine (first compound 0.1 µM); 0.608 with Masitinib + Decitabine (first compound 0.3162 µM); 0.596 with Masitinib + Decitabine (first compound 1 µM); 0.761 in assay [1] (first compound 0.08 µM). Moreover, the relative viability was determined as 0.839 in assay [1] (first compound 0.253 µM); 0.635 in assay [1] (first compound 0.8 µM); 0.67 in assay [1] (first compound 2.53 µM); 0.686 in assay [1] (first compound 8 µM); 0.46 with Masitinib + OSI-027 (first compound 0.03162 µM); 0.487 in the assay with Masitinib + OSI-027 (first compound 0.1 µM). Moreover, the relative viability with Masitinib + OSI-027 (first compound 0.3162 µM) was 0.491; in the assay with Masitinib + OSI-027 (first compound 1 µM) it was 0.46; in assay [2] (first compound 0.08 µM), 0.356; in assay [2] (first compound 0.253 µM), 0.32; in assay [2] (first compound 0.8 µM), 0.354; in assay [2] (first compound 2.53 µM), 0.34. For the same cell line, the relative viability in assay [2] (first compound 8 µM) turned out to be 0.487.
